Laboratory results reported in patent US9321808B2, “Homo- and heterodimeric SMAC mimetic compounds as apoptosis inducers” (BioNTech AG, priority 2012, dated 2016).

What was measured:
cIAP2-BIR3 = target: T1, cIAP2-BIR3 (Homo sapiens, UniProt Q13489); experiment: Fluorescence polarization binding, cIAP2 BIR3; conditions: displacement of fluorescent probe (2 nM) from cIAP2 (25 nM); average of three independent measurements; read-out: cIAP2 IC50(av)
T1 construct: 6xHis (C); made in house; host or cells: Escherichia coli BL21(DE3)
Protocol: (§1) The plasmids were used to transform Escherichia coli strain BL21(DE3). The recombinant proteins were purified using Ni-NTA (His-trap FFcrude, Ge-Healthcare), followed by gel filtration (Superdex 200, Ge-Healthcare). The recombinant proteins were eluted in 20 mM Tris pH 8.0, 250 mM NaCl and 10 mM DTT. Aliquoted proteins were conserved at −80° C.
(§2) The fluorescently-labelled Smac peptide (AbuRPF-K(5-Fam)-N1-12, final concentration of 2 nM), and increasing concentrations of cIAP1- and cIAP2-BIR3 from 0 to 20 μM, were added to an assay buffer consisting of 100 mM potassium phosphate, pH 7.5, 100 μg/ml bovine γ-globulin, 0.02% sodium azide. […] All experiments were performed in black, flat-bottom 96-well microplates (Greiner bio-one). 4-substituted azabicyclo[5.3.0]alkane Smac-mimetics were evaluated for their ability to displace the fluorescent probe from recombinant protein. […] After 15 minutes mixing on a shaker, and 3 hours incubation at room temperature, fluorescent polarization was measured on the Ultra plate reader (Tecan).

human XIAP BIR3 domain = target: T2, human XIAP BIR3 domain (Homo sapiens, UniProt P98170); experiment: Fluorescence polarization competitive binding, XIAP BIR3; conditions: displacement of FITC-SMAC probe from XIAP BIR3-His-tag (60 nM); average of three independent measurements
T2 construct: human XIAP BIR3 domain from residue 241 to 356; made in house; host or cells: Escherichia coli BL21
Protocol: (§3) Data were analyzed using Prism 4.0 software (Graphpad Software).

cIAP1-BIR3 = target: T3, cIAP1-BIR3 (Homo sapiens, UniProt Q13490); experiment: Fluorescence polarization binding, cIAP1 BIR3; conditions: displacement of fluorescent probe (2 nM) from cIAP1-BIR3 (10 nM); average of three independent measurements; read-out: cIAP1 IC50(av)
T3 construct: 6xHis (C); made in house; host or cells: Escherichia coli BL21(DE3)
Protocol: as §1, §2

[1] = target: T4, human XIAP linker-BIR2-BIR3 (Homo sapiens, UniProt P98170); experiment: Fluorescence polarization competitive binding, XIAP linker-BIR2-BIR3; conditions: displacement of SMAC-1F probe (1 nM) from XIAP linker-BIR2-BIR3-His-tag (3 nM); average of three independent measurements
T4 construct: human XIAP from residue 124 to 356 (linker-BIR2-BIR3); made in house; host or cells: Escherichia coli BL21
Protocol: as §3

[2] = tested on: MDA-MB-231 (breast epithelial adenocarcinoma); experiment: Standalone cytotoxicity, MTT assay, MDA-MB-231; assay type: cell-based, human; conditions: Homo sapiens, MDA-MB-231, 96 hours treatment, reported as activity range, read-out: MDA-MB-231 IC50 (μM ± standard Deviation)
Protocol: Human cell lines MDA-MB-231 (breast epithelial adenocarcinoma), HL-60 (promieloblast cells) and PC-3 (prostate adenocarcinoma cells) were purchased from Istituto Zooprofilattico di Brescia (www.bs.izs.it). Reagents for cell culture were purchased from Sigma, unless otherwise indicated. Cells were grown on Plastic Petri dishes (Falcon) in RPMI 1640 medium supplemented with 2 mM L-glutamine, Penicillin (100 U/mL)/Streptomicin (100 μg/mL), 10% Fetal Bovine Serum. A sub-cultivation ratio of 1:4 was used. Cells were maintained at 37° C. in an atmosphere of 95% air and 5% CO2.
Cells were seeded in 96-well flat bottom cell culture plates at a density of 5000 cells/well in 100 μL of culture medium. HL-60 cells were immediately stimulated with the indicated compounds for 96 hours in the incubator. MDA-MB-231 and PC-3 cells were allowed to adhere for 24 hours. prior to be exposed to the compounds for 96 hours in the incubator. Cells were exposed to the following concentrations of the compounds: 50 nM, 100 nM, 200 nM, 500 nM, 1 μM, 5 μM, 10 μM, 50 μM and 100 μM. Each point was done in triplicate. The cellular growth inhibitory effect of our compounds was evaluated using the MTT assay (Sigma). After 96 hours of treatment, 10 μL of MTT reagent solution (5 mg of MTT powder/mL diluted in Phosphate Buffer Salt saline solution) were added in each well and allowed to react for 3 hours in the incubator. After 3 hours cells were solubilized in Lysis Buffer (10% SDS/0.1% HCl in water, 100 μL for each well) for 24 hours at 37° C. Finally, the absorbance was measured at 570 nm using a multiplate reader. Absorbance values were collected and IC50 values were determined using GraphPad Prism5 software. The experiments were repeated twice.
After 96 hours of treatment, 10 μl of MTT reagent solution (5 mg of MTT powder/ml diluted in Phosphate Buffer Salt saline solution) were added in each well and allowed to react for 3 hours in the incubator. After 3 hours cells were solubilized in Lysis Buffer (10% SDS/0.1% HCl in water, 100 μl for each well) for 24 hours at 37° C. Finally, the absorbance was measured at 570 nm using a multiplate reader. Absorbance values were collected and IC50/IC80 values were determined using GraphPad Prism5 software.

XIAP = XIAP (Homo sapiens, UniProt P98170); conditions: technical background; read-out: Kd, binding to XIAP; cited from earlier work
XIAP, sequence (P98170 whole entry): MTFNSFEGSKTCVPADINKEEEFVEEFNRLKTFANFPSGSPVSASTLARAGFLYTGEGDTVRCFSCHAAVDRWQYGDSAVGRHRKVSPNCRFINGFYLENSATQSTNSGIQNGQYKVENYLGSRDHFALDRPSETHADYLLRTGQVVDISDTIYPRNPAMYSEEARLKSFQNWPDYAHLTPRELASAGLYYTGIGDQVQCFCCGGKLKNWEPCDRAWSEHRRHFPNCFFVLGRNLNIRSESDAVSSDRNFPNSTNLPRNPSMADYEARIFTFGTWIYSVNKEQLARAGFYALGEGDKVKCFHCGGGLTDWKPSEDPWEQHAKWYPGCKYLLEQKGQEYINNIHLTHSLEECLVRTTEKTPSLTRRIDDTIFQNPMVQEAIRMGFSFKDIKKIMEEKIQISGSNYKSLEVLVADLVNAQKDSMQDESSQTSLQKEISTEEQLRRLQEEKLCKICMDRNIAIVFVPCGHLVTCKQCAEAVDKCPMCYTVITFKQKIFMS

T1 sequence (Q13489 237-349): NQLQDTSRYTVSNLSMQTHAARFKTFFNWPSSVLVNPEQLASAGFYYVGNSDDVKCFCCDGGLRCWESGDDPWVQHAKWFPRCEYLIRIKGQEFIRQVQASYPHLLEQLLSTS
T3 sequence (Q13490 251-363): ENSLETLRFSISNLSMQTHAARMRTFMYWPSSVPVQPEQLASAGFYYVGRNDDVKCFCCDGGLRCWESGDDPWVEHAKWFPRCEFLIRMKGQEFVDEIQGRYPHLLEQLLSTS
T4 sequence (P98170 124-356): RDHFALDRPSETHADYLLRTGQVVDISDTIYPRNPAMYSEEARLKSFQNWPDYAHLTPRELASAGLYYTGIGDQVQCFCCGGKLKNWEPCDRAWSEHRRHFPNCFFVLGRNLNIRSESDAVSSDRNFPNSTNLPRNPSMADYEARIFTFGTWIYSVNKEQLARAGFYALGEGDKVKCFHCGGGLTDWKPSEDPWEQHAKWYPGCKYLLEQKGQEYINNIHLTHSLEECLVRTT
T2 sequence (P98170 241-356): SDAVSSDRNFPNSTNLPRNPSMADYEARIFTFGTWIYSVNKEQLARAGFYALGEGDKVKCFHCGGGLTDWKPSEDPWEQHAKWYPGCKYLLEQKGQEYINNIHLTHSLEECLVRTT

| IC50 (cIAP2-BIR3) | IC50 (human XIAP BIR3 domain) | IC50 (cIAP1-BIR3) | IC50 [1] | Molecule | IC50 [2] | Kd (XIAP) |
| --- | --- | --- | --- | --- | --- | --- |
| 2.9 nM | 26.7 nM | 2.6 nM | 0.8 nM | CC[C@H](NC)C(=O)N[C@@H]1C(=O)N2[C@@H](CC[C@@H]1CO)CC[C@H]2C(=O)N[C@H](C(=O)NCCCCNc1c(NCCCCNC(=O)[C@@H](NC(=O)[C@@H]2CC[C@@H]3CC[C@H](CO)[C@H](NC(=O)[C@H](CC)NC)C(=O)N32)c2ccccc2)c(=O)c1=O)c1ccccc1 [Compound 30b] | 10 to 50 µM | – |
| – | – | – | – | mature Smac protein: "second mitochondria-derived activator of caspases"; "N-terminal mitochondrial targeting sequence that is proteolytically removed during maturation to the mature polipeptide" (protein, UniProt Q9NR28 22-239, looked up) Diablo IAP-binding …: LCVPVVANFKKRCFSELIRPWHKTVTIGFGVTLCAVPIAQKSEPHSLSSEALMRRAVSLVTDSTSTFLSQTTYALIEAITEYTKAVYTLTSLYRQYTSLLGKMNSEEEDEVWQVIIGARAEMTSKHQEYLKLETTWMTAVGLSEMAAEAAYQTGADQASITARNHIQLVKLQVEEVHQLSRKAETKLAEAQIEELRQKTQEEGEERAESEQEAYLRED | – | 420 nM |
